Experimental data reported in patent US20230233606A1, “Cell” (AUTOLUS LIMITED, priority 2019, published 2023).

Assays:
Type in all cases: cell-based
SupT1 CD22 High [1] = experiment: FBK assay with or without 3-IB-PP1, Example 4, SupT1 CD22 High; conditions: 3-IB-PP1 10 uM; T cells expressing CSK^AS; CD22 High (20,262 molecules per cell); E:T 1:4; 72 h
Procedure: (§1) Analysis by flow cytometry was carried out at 72 h post co-culture set up. Each condition was tested with a minimum of 6 donors (n=6), with median indicated. All data was normalised to NT T cells. T cells were co-cultured with SupT1 NT (left), SupT1 CD22 High (middle) or SupT1 CD22 Low (right) target cells at an E:T ratio of 1:4. Statistics were run using a paired t-test. *P<0.05, **P<0.01, ***P<0.001, ****P<0.0001.
(§2) PBMCs were either left untransduced or transduced with one of the constructs. The capacity of the CAR-T cells to kill target cells expressing CD22 was investigated using a FACS-based killing (FBK) assay. […] Two different types of CD22-expressing SupT1 target cells were generated, one expressing CD22 at a low density (average number of CD22 molecules per cell: 3,309) and one expressing CD22 at a high density (average number of CD22 molecules per cell: 20,262).

SupT1 CD22 Low [2] = experiment: FBK assay with or without 3-IB-PP1, Example 4, SupT1 CD22 Low; conditions: 3-IB-PP1 10 uM; T cells expressing CSK^AS; CD22 Low (3,309 molecules per cell); E:T 1:4; 72 h
Procedure: as §1, §2

SupT1 CD22 High [3] = experiment: IL-2 release ELISA, Example 4, SupT1 CD22 High; conditions: 3-IB-PP1 10 uM, CSK^AS expressing T cells, E:T 1:4, 72 h
Procedure: (§3) Supernatant taken at 72 h post co-culture set up was analysed by ELISA for the presence of IL-2. Each condition was tested with a minimum of 6 donors (n=6), with median indicated. T cells were co-cultured with SupT1 NT (left), SupT1 CD22 High (middle) or SupT1 CD22 Low (right) target cells at an E:T ratio of 1:4.
(§4) In order to investigate cytokine release, supernatant was taken at 72 h post co-culture set up and analysed by ELISA for the presence of IL-2 and IFN-γ.

SupT1 CD22 Low [4] = experiment: IL-2 release ELISA, Example 4, SupT1 CD22 Low; conditions: 3-IB-PP1 10 uM, CSK^AS expressing T cells, E:T 1:4, 72 h
Procedure: as §3, §4

SupT1 CD22 High [5] = experiment: IFN-γ release ELISA, Example 4, SupT1 CD22 High; conditions: 3-IB-PP1 10 uM, T cells expressing CSK^AS, E:T 1:4, 72 h
Procedure: as §3, with “IFN-γ.” for “IL-2.”
as §4

SupT1 CD22 Low [6] = experiment: IFN-γ release ELISA, Example 4, SupT1 CD22 Low; conditions: 3-IB-PP1 10 uM, T cells expressing CSK^AS, E:T 1:4, 72 h
Procedure: as §3, with “IFN-γ.” for “IL-2.”
as §4

SupT1 CD22 High [7] = experiment: FBK assay with increasing concentrations of 3-IB-PP1, Example 5; conditions: 3-IB-PP1 0.156 uM-10 uM; T cells expressing CSK^AS; CD22 High (6,309 molecules per cell); E:T 1:4; 72 h
Procedure: (§5) Analysis by flow cytometry was carried out at 72 h post co-culture set up. Each condition was tested with a minimum of 3 donors (n=3), with median indicated. All data was normalised to NT T cells. T cells were co-cultured with SupT1 NT (left) or SupT1 CD22 High (right) target cells at an E:T ratio of 1:4.
(§6) The co-culture described in Example 4 was repeated, but this time with increasing concentrations of 3-IB-PP1 (0.156 uM-10 uM).

SupT1 CD22 High [8] = experiment: IFN-γ release with increasing concentrations of 3-IB-PP1, Example 5; conditions: 3-IB-PP1 0.156 uM-10 uM, T cells expressing CSK^AS, E:T 1:4, 72 h
Procedure: as §5, §6

## CC(C)(C)n1nc(Cc2cccc(I)c2)c2c(N)ncnc21 [3-IB-PP1, 3-iodo-benzyl-PP1]
SupT1 CD22 High [1]
  cytotoxicity: significantly increased compared to the media condition
SupT1 CD22 Low [2]
  cytotoxicity: significantly increased compared to the media condition
SupT1 CD22 High [3]
  IL-2 release: increased levels of IL-2
SupT1 CD22 Low [4]
  IL-2 release: increased levels of IL-2
SupT1 CD22 High [5]
  IFN-γ release: significantly higher IFN-γ concentrations compared to the media condition
SupT1 CD22 Low [6]
  IFN-γ release: significantly higher IFN-γ concentrations compared to the media condition
SupT1 CD22 High [7]
  cytotoxicity: increased in a dose-dependent manner
SupT1 CD22 High [8]
  IFN-γ production: increased in a dose-dependent manner
